Consider two compounds from article PMC2812684 (Biochimica et biophysica acta, 2009).

Like-named read-outs stand apart in the source and are kept apart here.

Common to all, as to assay type: cell-based
In test [1] the target is T1, succinate dehydrogenase (complex II) (Rattus norvegicus, UniProt Q920L2). Conditions: for IC50: IC50 Complex II.
Test [2] deals with T1, succinate dehydrogenase (complex II). The test can be described thus: Inhibition of respiration by 3-nitropropionic acid in whole. Particulars: endogenous substrates.
Test [3] deals with T2, cytochrome bc1 oxidoreductase (complex III) (Rattus norvegicus, UniProt P00159). The test can be described thus: Inhibition of respiration by antimycin A in whole. Conditions: endogenous substrates.
The target in test [4] is T2, cytochrome bc1 oxidoreductase (complex III). Particulars: for decrease of IC50 with exogenous vs endogenous substrates: excess exogenous glutamate, malate, succinate.

T1 sequence (Q920L2 whole entry, looked up, one chain of several): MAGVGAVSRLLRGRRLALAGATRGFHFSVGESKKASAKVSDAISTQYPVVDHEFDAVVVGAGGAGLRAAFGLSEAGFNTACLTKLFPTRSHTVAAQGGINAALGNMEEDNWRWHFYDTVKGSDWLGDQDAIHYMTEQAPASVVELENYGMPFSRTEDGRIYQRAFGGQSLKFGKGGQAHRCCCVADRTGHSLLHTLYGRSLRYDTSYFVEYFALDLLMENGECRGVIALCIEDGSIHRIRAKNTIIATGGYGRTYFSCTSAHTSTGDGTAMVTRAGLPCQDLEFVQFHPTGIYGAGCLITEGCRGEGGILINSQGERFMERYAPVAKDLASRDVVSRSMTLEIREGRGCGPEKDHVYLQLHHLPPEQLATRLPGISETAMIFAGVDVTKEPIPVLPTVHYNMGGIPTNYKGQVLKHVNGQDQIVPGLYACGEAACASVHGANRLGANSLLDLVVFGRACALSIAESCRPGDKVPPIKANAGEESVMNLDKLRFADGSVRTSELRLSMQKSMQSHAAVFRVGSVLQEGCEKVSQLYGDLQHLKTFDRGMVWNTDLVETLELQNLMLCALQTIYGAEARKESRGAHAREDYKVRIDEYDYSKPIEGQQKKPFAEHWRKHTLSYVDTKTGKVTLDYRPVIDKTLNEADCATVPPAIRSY

By IC50 is commonly meant the concentration that gives 50% inhibition. As to `O=C(O)CC[N+](=O)[O-]` [3-NP, 3-nitropropionic acid], the IC50 turned out to be 6100 µM in test [1] (MA) and 2100 µM in test [1] (Old). For the same compound, the “increase of IC50 with exogenous vs endogenous substrates” value in test [1] (neurons from middle-age rats, complex I inhibited, excess exogenous succinate) was found to be 7%. The “decrease of IC50 with exogenous vs endogenous substrates” value in test [1] (neurons from old rats, complex I inhibited, excess exogenous succinate) turned out to be 75%. For the same compound, the “decrease of IC50 with age” value in test [1] (old vs middle-age permeabilized neurons, exogenous substrates, insignificant) is reported as 66%. The “percent of initial rate remaining at flux point” value in test [2] (8 mM 3-NP, neurons from middle-age rats) worked out at 39%. Also, in test [2] (old vs middle-age neurons, insignificant), the “increase of IC50 with age” value is on record as 49%.

Take `CCCCCC[C@H]1C(=O)O[C@H](C)[C@H](NC(=O)c2cccc(NC=O)c2O)C(=O)O[C@@H](C)[C@@H]1OC(=O)CC(C)C` [antimycin A]: the IC50 in test [3] (IC50 Complex III, Old, neurons from old (24 month) rats) was 0.16 µM. In addition, the “decrease of IC50 with age” value was determined as 35% in test [3] (old vs middle-age neurons, p=0.006) and 60% in test [4] (old vs middle-age permeabilized neurons, exogenous substrates, p=0.0001). For the same compound, the “decrease of IC50 with exogenous vs endogenous substrates” value in test [4] (neurons from middle-age rats) amounted to 46%; in test [4] (neurons from old rats), 68%.
